PubChem BioAssay (NCI)
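Five compound concentrations were applied to cells in 96-well plates for 48 hours; endpoints were derived by simple linear interpolation of the resulting dose-response curve. GI50 = concentration required for 50% inhibition of growth. TGI is the concentration that stops growth completely.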

Legend:
Assay in all cases: growth of human tumour cells (NCI), 48 h
[1] = test system: CAKI-1 renal
[2] = test system: HCC-2998 colon
[3] = test system: MALME-3M melanoma
[4] = test system: HCT-116 colon
[5] = test system: EKVX NSCLC
[6] = test system: M14 melanoma
[7] = test system: SF-539 CNS
[8] = test system: SK-OV-3 ovarian
[9] = test system: OVCAR-3 ovarian
[10] = test system: LOX IMVI melanoma

Row | Structure (SMILES) | TGI [1] [µM] | TGI [2] [µM] | TGI [3] [µM] | TGI [4] [µM] | TGI [5] [µM] | TGI [6] [µM] | TGI [7] [µM] | TGI [8] [µM] | TGI [9] [µM] | TGI [10] [µM] | GI50 [1] [µM] | GI50 [2] [µM] | GI50 [3] [µM] | GI50 [4] [µM] | GI50 [5] [µM] | GI50 [6] [µM] | GI50 [7] [µM] | GI50 [8] [µM] | GI50 [9] [µM] | GI50 [10] [µM]
1 | COc1ccc(NC(=O)CCc2cc(C(C)(C)C)n[nH]2)cc1 | > 100 | > 100 | > 100 | > 100 | > 100 | > 100 | > 100 | > 100 | > 100 | > 100 |  |  |  |  |  |  |  |  |  | 
2 | O=C(Nc1ccc2c(c1)OCO2)C(=O)c1c[nH]c2cc(F)ccc12 | > 100 | > 100 | 8.61 | > 100 | > 100 | 10.9 | 36.3 | 15.2 | 19 | > 100 | 0.677 | 0.688 | 3 | 11.2 | 13.3 | 0.466 | 3.23 | 4.24 | 4.67 | 0.476
3 | CC(C)(C)c1ccc(O)c(CN(Cc2cc(C(C)(C)C)ccc2O)C2CCCCC2)c1 | > 70.1 | 4.48 | 30.8 | 30.6 | > 63.7 | 28.4 | 31 | 47.8 | 34.9 | 24.1 |  |  |  |  |  |  |  |  |  | 
4 | O=C(O)CCSC(=O)Nc1ccccc1Cl | > 100 | > 100 | > 100 | > 100 | > 100 | > 100 | > 100 | > 100 | > 100 | > 100 |  |  |  |  |  |  |  |  |  | 
5 | O=C(O)CCSC(=S)Nc1cccc(F)c1 | > 100 | > 100 | > 100 | > 100 | 81.8 | > 100 | > 100 | > 100 | > 100 | 42.6 |  |  |  |  |  |  |  |  |  | 
6 | CN(O)C(=S)c1ccccc1 | 81.3 | 44 | > 100 | 5.07 | > 95.2 | > 38.7 | 63.1 | > 95.5 | 34.8 | 7.76 |  |  |  |  |  |  |  |  |  | 
7 | Cc1cc(NNC(=O)c2ccccc2O)nc(Nc2nc3ccccc3o2)n1 | 14.3 | 13.8 | 15.5 | 7.47 | 15.2 | 3.44 | 11.2 | 2.22 | 15.6 | 4.41 | 1.73 | 2.13 | 2.98 | 1.06 | 2.81 | 0.854 | 1.41 | 0.633 | 2.06 | 0.607
8 | C=C1CCC2C3(C)COC(c4ccc(Cl)cc4)OC3CCC2(C)C1/C=C/C1=CCOC1=O (stereo not given) | > 100 | > 100 | 71.4 | > 100 | 29.8 | > 100 | > 100 | 74.5 | 56.8 | 17.6 | 6.87 | 6.73 | 11.3 | 2.54 | 0.751 | 27.2 | 11.2 | 16.7 | 7.52 | 0.985
